Results reported in publication PMC11347070 (Current Research in Toxicology, 2024).

Experiments:
[1] = ref FDA, KEPPRA® (levetiracetam), n.d.; cited from earlier work
[2] = test system: zebrafish embryos and larvae; conditions: exposed to 500 µM ECA; 120 hpf
[3] = test system: zebrafish embryos and larvae; assay: Zebrafish embryo developmental toxicity assay; conditions: for BA heart / Coagulation/dead / Curved fin left / Curved fin right / Curved tail / Edema head / Edema pericard / Edema yolk / No hatching / Tissue deviation tail / Tot. malformed (excl. dead) / Tot. malformed (incl. dead) / Deviation eye / Elbow tail: 120 hpf

CCC(C(=O)O)N1CCCC1=O (stereo not drawn) [ECA, etiracetam carboxylic acid]
human metabolite of LTC, share of the administered dose [1]: 24 % of the administered dose
concentration of ECA in larvae [2]: no concentrations above the LOD could be detected
uptake of ECA [2]: no uptake of ECA could be observed
BA heart ([3]; ECA 1 µM, replicate 1): 0/20
Coagulation/dead ([3]; ECA 1 µM, replicate 1): 0/20
Curved fin left ([3]; ECA 1 µM, replicate 1): 0/20
Curved fin right ([3]; ECA 1 µM, replicate 1): 0/20
Curved tail ([3]; ECA 1 µM, replicate 1): 0/20
Edema head ([3]; ECA 1 µM, replicate 1): 0/20
Edema pericard ([3]; ECA 1 µM, replicate 1): 0/20
Edema yolk ([3]; ECA 1 µM, replicate 1): 0/20
No hatching ([3]; ECA 1 µM, replicate 1): 0/20
Tissue deviation tail ([3]; ECA 1 µM, replicate 1): 0/20
Tot. malformed (excl. dead) ([3]; ECA 1 µM, replicate 1): 0/20
Tot. malformed (incl. dead) ([3]; ECA 1 µM, replicate 1): 0/20
BA heart ([3]; ECA 1 µM, replicate 2): 0/19
Coagulation/dead ([3]; ECA 1 µM, replicate 2): 1/20
Curved fin left ([3]; ECA 1 µM, replicate 2): 0/19
Curved fin right ([3]; ECA 1 µM, replicate 2): 0/19
Curved tail ([3]; ECA 1 µM, replicate 2): 0/19
Edema head ([3]; ECA 1 µM, replicate 2): 0/19
Edema pericard ([3]; ECA 1 µM, replicate 2): 0/19
Edema yolk ([3]; ECA 1 µM, replicate 2): 0/19
No hatching ([3]; ECA 1 µM, replicate 2): 0/19
Tissue deviation tail ([3]; ECA 1 µM, replicate 2): 0/19
Tot. malformed (excl. dead) ([3]; ECA 1 µM, replicate 2): 0/19
Tot. malformed (incl. dead) ([3]; ECA 1 µM, replicate 2): 1/20
BA heart ([3]; ECA 10 µM, replicate 1): 0/18
Coagulation/dead ([3]; ECA 10 µM, replicate 1): 2/20
Curved fin left ([3]; ECA 10 µM, replicate 1): 0/18
Curved fin right ([3]; ECA 10 µM, replicate 1): 0/18
Curved tail ([3]; ECA 10 µM, replicate 1): 2/18
Edema head ([3]; ECA 10 µM, replicate 1): 0/18
Edema pericard ([3]; ECA 10 µM, replicate 1): 0/18
Edema yolk ([3]; ECA 10 µM, replicate 1): 0/18
No hatching ([3]; ECA 10 µM, replicate 1): 1/18
Tissue deviation tail ([3]; ECA 10 µM, replicate 1): 0/18
Tot. malformed (excl. dead) ([3]; ECA 10 µM, replicate 1): 2/18
Tot. malformed (incl. dead) ([3]; ECA 10 µM, replicate 1): 4/20
BA heart ([3]; ECA 10 µM, replicate 2): 0/20
Coagulation/dead ([3]; ECA 10 µM, replicate 2): 0/20
Curved fin left ([3]; ECA 10 µM, replicate 2): 0/20
Curved fin right ([3]; ECA 10 µM, replicate 2): 0/20
Curved tail ([3]; ECA 10 µM, replicate 2): 1/20
Edema head ([3]; ECA 10 µM, replicate 2): 0/20
Edema pericard ([3]; ECA 10 µM, replicate 2): 0/20
Edema yolk ([3]; ECA 10 µM, replicate 2): 0/20
No hatching ([3]; ECA 10 µM, replicate 2): 0/20
Tissue deviation tail ([3]; ECA 10 µM, replicate 2): 0/20
Tot. malformed (excl. dead) ([3]; ECA 10 µM, replicate 2): 1/20
Tot. malformed (incl. dead) ([3]; ECA 10 µM, replicate 2): 1/20
BA heart ([3]; ECA 100 µM, replicate 1): 0/18
Coagulation/dead ([3]; ECA 100 µM, replicate 1): 2/20
Curved fin left ([3]; ECA 100 µM, replicate 1): 0/18
Curved fin right ([3]; ECA 100 µM, replicate 1): 0/18
Curved tail ([3]; ECA 100 µM, replicate 1): 0/18
Edema head ([3]; ECA 100 µM, replicate 1): 0/18
Edema pericard ([3]; ECA 100 µM, replicate 1): 1/18
Edema yolk ([3]; ECA 100 µM, replicate 1): 0/18
No hatching ([3]; ECA 100 µM, replicate 1): 0/18
Tissue deviation tail ([3]; ECA 100 µM, replicate 1): 1/18
Tot. malformed (excl. dead) ([3]; ECA 100 µM, replicate 1): 1/18
Tot. malformed (incl. dead) ([3]; ECA 100 µM, replicate 1): 3/20
BA heart ([3]; ECA 100 µM, replicate 2): 1/20
Coagulation/dead ([3]; ECA 100 µM, replicate 2): 0/20
Curved fin left ([3]; ECA 100 µM, replicate 2): 1/20
Curved fin right ([3]; ECA 100 µM, replicate 2): 1/20
Curved tail ([3]; ECA 100 µM, replicate 2): 1/20
Edema head ([3]; ECA 100 µM, replicate 2): 1/20
Edema pericard ([3]; ECA 100 µM, replicate 2): 2/20
Edema yolk ([3]; ECA 100 µM, replicate 2): 1/20
No hatching ([3]; ECA 100 µM, replicate 2): 0/20
Tissue deviation tail ([3]; ECA 100 µM, replicate 2): 1/20
Tot. malformed (excl. dead) ([3]; ECA 100 µM, replicate 2): 2/20
Tot. malformed (incl. dead) ([3]; ECA 100 µM, replicate 2): 2/20
Coagulation/dead ([3]; ECA 250 µM, replicate 1): 0/20
Curved tail ([3]; ECA 250 µM, replicate 1): 0/20
Deviation eye ([3]; ECA 250 µM, replicate 1): 0/20
Elbow tail ([3]; ECA 250 µM, replicate 1): 1/20
Tissue deviation tail ([3]; ECA 250 µM, replicate 1): 1/20
Tot. malformed (excl. dead) ([3]; ECA 250 µM, replicate 1): 2/20
Tot. malformed (incl. dead) ([3]; ECA 250 µM, replicate 1): 2/20
Coagulation/dead ([3]; ECA 250 µM, replicate 2): 0/20
Curved tail ([3]; ECA 250 µM, replicate 2): 0/20
Deviation eye ([3]; ECA 250 µM, replicate 2): 0/20
Elbow tail ([3]; ECA 250 µM, replicate 2): 0/20
Tissue deviation tail ([3]; ECA 250 µM, replicate 2): 0/20
Tot. malformed (excl. dead) ([3]; ECA 250 µM, replicate 2): 0/20
Tot. malformed (incl. dead) ([3]; ECA 250 µM, replicate 2): 0/20
Coagulation/dead ([3]; ECA 500 µM, replicate 1): 0/20
Curved tail ([3]; ECA 500 µM, replicate 1): 1/20
Deviation eye ([3]; ECA 500 µM, replicate 1): 1/20
Elbow tail ([3]; ECA 500 µM, replicate 1): 0/20
Tissue deviation tail ([3]; ECA 500 µM, replicate 1): 1/20
Tot. malformed (excl. dead) ([3]; ECA 500 µM, replicate 1): 2/20
Tot. malformed (incl. dead) ([3]; ECA 500 µM, replicate 1): 2/20
Coagulation/dead ([3]; ECA 500 µM, replicate 2): 0/20
Curved tail ([3]; ECA 500 µM, replicate 2): 0/20
Deviation eye ([3]; ECA 500 µM, replicate 2): 0/20
Elbow tail ([3]; ECA 500 µM, replicate 2): 0/20
Tissue deviation tail ([3]; ECA 500 µM, replicate 2): 1/20
Tot. malformed (excl. dead) ([3]; ECA 500 µM, replicate 2): 1/20
Tot. malformed (incl. dead) ([3]; ECA 500 µM, replicate 2): 1/20
differences between test groups and embryo medium control group ([3]; all test concentrations, 24 to 120 hpf, Fisher Exact test): no statistically significant differences
teratogenicity in zebrafish larvae ([3]; concentrations up to 10,000 µM LTC and 500 µM ECA, likely due to limited uptake or lack of uptake): non-teratogenic
